Results taken from patent publication US20050281850A1, “Cosmetic/dermatological inverse emulsions containing calcitriol and clobetasol 17-propionate” (GALDERMA S.A., priority 2004, published 2005).

Assays:
Assay type in all cases: physicochemical
[1] = Stability of calcitriol in Miglyol 812 (HPLC assay against reference substance); settings: for Calcitriol concentration measured as % relative to T0: 30 ppm in Miglyol 812, 0.4% BHT
Excerpt: (§1) b) Stability of Calcitriol in Miglyol 812 (Caprylic/-15 Capric Triglycerides) 30 ppm solution of calcitriol in qs 100% Miglyol 812 in the presence of 0.4% BHT. HPLC assay technique against reference substance. At the initial time (T0), it is considered that the composition comprises 100% calcitriol. Calcitriol concentration measured as % relative to T0: […]

[2] = Stability of calcitriol in ethanol (HPLC assay against reference substance); settings: 30 ppm in absolute ethanol, 0.02% BHT
Excerpt: as §1, with “a)” for “b)”, “Ethanol:” for “Miglyol 812 (Caprylic/-15 Capric Triglycerides)”, “of absolute ethanol” for “Miglyol 812”, “0.02%” for “0.4%”

[3] = Stability of calcitriol in Cetiol SN (HPLC assay against reference substance); settings: for Calcitriol concentration measured as % relative to T0: 30 ppm in Cetiol SN, 0.4% BHT
Excerpt: as §1, with “c)” for “b)”, “Cetiol SN (Cetearyl Isononanoate):” for “Miglyol 812 (Caprylic/-15 Capric Triglycerides)”, “Cetiol SN (cetearyl isononanoate)” for “Miglyol 812”

- Calcitriol concentration measured as % relative to T0 ([1]; +4° C., T2 weeks): 98.3%
- Calcitriol concentration measured as % relative to T0 ([1]; +4° C., T4 weeks): 105.2%
- Calcitriol concentration measured as % relative to T0 ([1]; +40° C., T2 weeks): 91%
- Calcitriol concentration measured as % relative to T0 ([1]; +40° C., T4 weeks): 93.8%
- Calcitriol concentration measured as % relative to T0 ([1]; RT, T2 weeks): 95.1%
- Calcitriol concentration measured as % relative to T0 ([1]; RT, T4 weeks): 98.0%
- Stability of calcitriol in Miglyol 812 (in words) ([1]; in Miglyol 812): good stability
- Calcitriol concentration measured as % relative to T0 ([2]; +4° C., T1 week): 97.7%
- Calcitriol concentration measured as % relative to T0 ([2]; +4° C., T2 weeks): 98.6%
- Calcitriol concentration measured as % relative to T0 ([2]; +4° C., T3 weeks): 98.1%
- Calcitriol concentration measured as % relative to T0 ([2]; +4° C., T4 weeks): 97.7%
- Calcitriol concentration measured as % relative to T0 ([2]; +30° C., T2 weeks): 93.4%
- Calcitriol concentration measured as % relative to T0 ([2]; +30° C., T4 weeks): 93.0%
- Calcitriol concentration measured as % relative to T0 ([2]; −18° C., T1 week): 100.9%
- Calcitriol concentration measured as % relative to T0 ([2]; −18° C., T2 weeks): 100.5%
- Calcitriol concentration measured as % relative to T0 ([2]; −18° C., T3 weeks): 99.5%
- Calcitriol concentration measured as % relative to T0 ([2]; −18° C., T4 weeks): 99.5%
- Calcitriol concentration measured as % relative to T0 ([3]; +4° C., T2 weeks): 98.6%
- Calcitriol concentration measured as % relative to T0 ([3]; +4° C., T4 weeks): 98.1%
- Calcitriol concentration measured as % relative to T0 ([3]; +40° C., T2 weeks): 99.0%
- Calcitriol concentration measured as % relative to T0 ([3]; +40° C., T4 weeks): 98.9%
- Calcitriol concentration measured as % relative to T0 ([3]; RT, T2 weeks): 98.7%
- Calcitriol concentration measured as % relative to T0 ([3]; RT, T4 weeks): 98.4%
- Stability of calcitriol in Cetiol SN (in words) ([3]; in Cetiol SN): good stability
Compound: C=C1/C(=C\C=C2/CCC[C@]3(C)[C@@H]([C@H](C)CCCC(C)(C)O)CC[C@@H]23)C[C@@H](O)C[C@@H]1O [calcitriol]
